Assay results as given in patent publication US9200005B2, “Inhibitor compounds of phosphodiesterase type 10A” (AbbVie Deutschland GmbH & Co. KG, priority 2013, dated 2015).
Counter-ions that a name gives are not always drawn.

Experiments:
[1] = Determination of the microsomal half-life / microsomal clearance, rat liver microsomes; type: in vitro ADME; conditions: 0.5 μM test substance, 0.25 mg of microsomal protein/mL, NADPH, 37° C.
Experimental: (§1) b) Determination of the Microsomal Half-Life:
(§2) The metabolic stability of the compounds of the invention was determined in the following assay.
(§3) The test substances were incubated in a concentration of 0.5 μM as follows:
(§4) 0.5 μM test substance are preincubated together with liver microsomes from different species (from rat, human or other species) (0.25 mg of microsomal protein/mL) in 0.05 M potassium phosphate buffer of pH 7.4 in microtiter plates at 37° C. for 5 min. The reaction is started by adding NADPH (1 mg/mL). After 0, 5, 10, 15, 20 and 30 min, 50 μl aliquots are removed, and the reaction is immediately stopped and cooled with the same volume of acetonitrile. The samples are frozen until analyzed. The remaining concentration of undegraded test substance is determined by MSMS. The half-life (T½) is determined from the gradient of the signal of test substance/unit time plot, it being possible to calculate the half-life of the test substance, assuming first order kinetics, from the decrease in the concentration of the compound with time. The microsomal clearance (mCl) is calculated from mCl=ln 2/T½/(content of microsomal protein in mg/mL)×1000 [mL/min/mg] (modified from references: Di, The Society for Biomoleculur Screening, 2003, 453-462; Obach, DMD, 1999 vol 27. N 11, 1350-1359).

[2] = Determination of the microsomal half-life / microsomal clearance, human liver microsomes; type: in vitro ADME; conditions: 0.5 μM test substance, 0.25 mg of microsomal protein/mL, NADPH, 37° C.
Experimental: as §1, §2, §3, §4

Rat mCl [1] | Human mCl [2] | Molecule
++ (++: <100 μl min^−1 mg^−1) | + (+: 100-220 μl min^−1 mg^−1) | CN1CCN(Cc2cccc(-c3csc4c(-c5ccncc5)nn(C)c(=O)c34)c2)CC1.O=C(O)C(F)(F)F.O=C(O)C(F)(F)F.O=C(O)C(F)(F)F [Example 42, 5-methyl-3-{3-[(4-methylpiperazin-1-yl)methyl]phenyl}-7-(pyridin-4-yl)thieno[2,3-d]pyridazin-4(5H)-one tris(trifluoroacetate)]
+ (+: 100-220 μl min^−1 mg^−1) | ++ (++: <100 μl min^−1 mg^−1) | Cn1nc(-c2ccncc2)c2scc(-c3ccsc3)c2c1=O.O=C(O)C(F)(F)F [Example 34, 5-methyl-7-(pyridin-4-yl)-3-(thiophen-3-yl)thieno[2,3-d]pyridazin-4(5H)-one trifluoroacetate]
+ (+: 100-220 μl min^−1 mg^−1) | + (+: 100-220 μl min^−1 mg^−1) | Cn1nc(-c2ccncc2)c2scc(CN3CCOCC3)c2c1=O [Example 13, 5-methyl-3-(morpholin-4-ylmethyl)-7-(pyridin-4-yl)thieno[2,3-d]pyridazin-4(5H)-one]
++ (++: <100 μl min^−1 mg^−1) | ++ (++: <100 μl min^−1 mg^−1) | Cn1nc(-c2ccncc2)c2scc(N3CCNCC3)c2c1=O [Example 12, 5-methyl-3-(piperazin-1-yl)-7-(pyridin-4-yl)thieno[2,3-d]pyridazin-4(5H)-one (dihydrochloride salt)]
+ (+: 100-220 μl min^−1 mg^−1) | + (+: 100-220 μl min^−1 mg^−1) | Cn1nc(-c2ccncc2)c2scc(-c3cc4ccccc4s3)c2c1=O.O=C(O)C(F)(F)F [Example 23, 3-(1-benzothiophen-2-yl)-5-methyl-7-(pyridin-4-yl)thieno[2,3-d]pyridazin-4(5H)-one trifluoroacetate]
++ (++: <100 μl min^−1 mg^−1) | + (+: 100-220 μl min^−1 mg^−1) | O=c1c2c(-c3ccncc3)csc2c(-c2ccncc2)nn1CC1CCCO1 (stereo not drawn) [Example 141, 3,7-di(pyridin-4-yl)-5-(tetrahydrofuran-2-ylmethyl)thieno[2,3-d]pyridazin-4(5H)-one]
++ (++: <100 μl min^−1 mg^−1) | ++ (++: <100 μl min^−1 mg^−1) | COc1ccccc1-c1csc2c(-c3ccncc3)nn(C)c(=O)c12.O=C(O)C(F)(F)F [Example 39, 3-(2-methoxyphenyl)-5-methyl-7-(pyridin-4-yl)thieno[2,3-d]pyridazin-4(5H)-one trifluoroacetate]
++ (++: <100 μl min^−1 mg^−1) | + (+: 100-220 μl min^−1 mg^−1) | CC(C)(C)n1nc(-c2ccncc2)c2scc(-c3ccncc3)c2c1=O [Example 132, 5-tert-butyl-3,7-di(pyridin-4-yl)thieno[2,3-d]pyridazin-4(5H)-one]
++ (++: <100 μl min^−1 mg^−1) | ++ (++: <100 μl min^−1 mg^−1) | Cn1nc(-c2ccccc2C(N)=O)c2scc(-c3ccncc3)c2c1=O [Example 98, 2-[5-methyl-4-oxo-3-(pyridin-4-yl)-4,5-dihydrothieno[2,3-d]pyridazin-7-yl]benzamide]
++ (++: <100 μl min^−1 mg^−1) | + (+: 100-220 μl min^−1 mg^−1) | Cn1nc(OCc2ccc(Cl)c(Cl)c2)c2scc(-c3ccncc3)c2c1=O [Example 77, 7-[(3,4-dichlorobenzyl)oxy]-5-methyl-3-(pyridin-4-yl)thieno[2,3-d]pyridazin-4(5H)-one]
++ (++: <100 μl min^−1 mg^−1) | + (+: 100-220 μl min^−1 mg^−1) | Cn1nc(-c2ccncc2)c2scc(-c3cccc(F)c3)c2c1=O.O=C(O)C(F)(F)F [Example 31, 3-(3-fluorophenyl)-5-methyl-7-(pyridin-4-yl)thieno[2,3-d]pyridazin-4(5H)-one trifluoroacetate]
++ (++: <100 μl min^−1 mg^−1) | ++ (++: <100 μl min^−1 mg^−1) | Cn1nc(-c2ccncc2)c2scc(N3CCC(O)CC3)c2c1=O [Example 4, 3-(4-hydroxypiperidin-1-yl)-5-methyl-7-(pyridin-4-yl)thieno[2,3-d]pyridazin-4(5H)-one]
+ (+: 100-220 μl min^−1 mg^−1) | ++ (++: <100 μl min^−1 mg^−1) | Cn1nc(OC2CCCCC2)c2scc(-c3ccncc3)c2c1=O.O=C(O)C(F)(F)F [Example 53, 7-(cyclohexyloxy)-5-methyl-3-(pyridin-4-yl)thieno[2,3-d]pyridazin-4(5H)-one trifluoroacetate]

Continued, molecule first:

Molecule | Rat mCl [1] | Human mCl [2]
Cn1nc(OCC2CCN(C(=O)OC(C)(C)C)CC2)c2scc(-c3ccncc3)c2c1=O [Example 79, tert-butyl 4-({[5-methyl-4-oxo-3-(pyridin-4-yl)-4,5-dihydrothieno[2,3-d]pyridazin-7-yl]oxy}methyl)piperidine-1-carboxylate] | + (+: 100-220 μl min^−1 mg^−1) | + (+: 100-220 μl min^−1 mg^−1)
Cn1nc(OCC2CCCCC2)c2scc(-c3ccncc3)c2c1=O [Example 57, 7-(cyclohexylmethoxy)-5-methyl-3-(pyridin-4-yl)thieno[2,3-d]pyridazin-4(5H)-one] | + (+: 100-220 μl min^−1 mg^−1) | + (+: 100-220 μl min^−1 mg^−1)
Cn1nc(-c2ccncc2)c2scc(-c3ccc(F)cc3)c2c1=O [Example 8, 3-(4-fluorophenyl)-5-methyl-7-(pyridin-4-yl)thieno[2,3-d]pyridazin-4(5H)-one] | + (+: 100-220 μl min^−1 mg^−1) | + (+: 100-220 μl min^−1 mg^−1)
3-(4-fluorophenyl)-5-methyl-7-(pyridin-4-yl)thieno[2,3-d]pyridazin-4(5H)-one [Example 48] | ++ (++: <100 μl min^−1 mg^−1) | ++ (++: <100 μl min^−1 mg^−1)
Cn1nc(N2CCCCC2)c2scc(-c3ccncc3)c2c1=O [Example 47, 5-methyl-7-(piperidin-1-yl)-3-(pyridin-4-yl)thieno[2,3-d]pyridazin-4(5H)-one] | + (+: 100-220 μl min^−1 mg^−1) | + (+: 100-220 μl min^−1 mg^−1)
Cn1nc(-c2ccncc2)c2scc(-c3ccc(NS(C)(=O)=O)cc3)c2c1=O.O=C(O)C(F)(F)F [Example 33, N-{4-[5-methyl-4-oxo-7-(pyridin-4-yl)-4,5-dihydrothieno[2,3-d]pyridazin-3-yl]phenyl}methanesulfonamide trifluoroacetate] | ∘ (∘ not avialable or >220 μl min^−1 mg^−1) | ++ (++: <100 μl min^−1 mg^−1)
N#Cc1cccc(-c2csc3c(-c4ccncc4)nn(CC(F)(F)F)c(=O)c23)c1 [Example 129, 3-[4-oxo-7-(pyridin-4-yl)-5-(2,2,2-trifluoroethyl)-4,5-dihydrothieno[2,3-d]pyridazin-3-yl]benzonitrile] | ++ (++: <100 μl min^−1 mg^−1) | ++ (++: <100 μl min^−1 mg^−1)
Cn1nc(-c2ccncc2)c2scc(-c3cccc(C(=O)N4CCOCC4)c3)c2c1=O [Example 32, 5-methyl-3-[3-(morpholin-4-ylcarbonyl)phenyl]-7-(pyridin-4-yl)thieno[2,3-d]pyridazin-4(5H)-one trifluoroacetate] | ++ (++: <100 μl min^−1 mg^−1) | ++ (++: <100 μl min^−1 mg^−1)
Cn1nc(-c2ccncc2)c2scc(-c3ccc(F)nc3)c2c1=O.O=C(O)C(F)(F)F.O=C(O)C(F)(F)F [Example 27, 3-(6-fluoropyridin-3-yl)-5-methyl-7-(pyridin-4-yl)thieno[2,3-d]pyridazin-4(5H)-one bis(trifluoroacetate)] | ++ (++: <100 μl min^−1 mg^−1) | ++ (++: <100 μl min^−1 mg^−1)
CC(C)c1cccc(COc2nn(C)c(=O)c3c(-c4ccncc4)csc23)c1.O=C(O)C(F)(F)F [Example 65, 5-methyl-7-{[3-(propan-2-yl)benzyl]oxy}-3-(pyridin-4-yl)thieno[2,3-d]pyridazin-4(5H)-one trifluoroacetate] | + (+: 100-220 μl min^−1 mg^−1) | ∘ (∘ not avialable or >220 μl min^−1 mg^−1)
Cn1nc(-c2ccncc2)c2scc(-c3ccccc3F)c2c1=O.O=C(O)C(F)(F)F [Example 36, 3-(2-fluorophenyl)-5-methyl-7-(pyridin-4-yl)thieno[2,3-d]pyridazin-4(5H)-one trifluoroacetate] | ++ (++: <100 μl min^−1 mg^−1) | ++ (++: <100 μl min^−1 mg^−1)
CN1CCN(Cc2ccc(-c3csc4c(-c5ccncc5)nn(C)c(=O)c34)cc2)CC1.O=C(O)C(F)(F)F.O=C(O)C(F)(F)F.O=C(O)C(F)(F)F [Example 43, 5-methyl-3-{4-[(4-methylpiperazin-1-yl)methyl]phenyl}-7-(pyridin-4-yl)thieno[2,3-d]pyridazin-4(5H)-one tris(trifluoroacetate)] | ++ (++: <100 μl min^−1 mg^−1) | ++ (++: <100 μl min^−1 mg^−1)
O=c1c2c(-c3ccncc3)csc2c(-c2ccncc2)nn1C1CCCC1 [Example 134, 5-cyclopentyl-3,7-di(pyridin-4-yl)thieno[2,3-d]pyridazin-4(5H)-one] | + (+: 100-220 μl min^−1 mg^−1) | ∘ (∘ not avialable or >220 μl min^−1 mg^−1)
Cn1nc(-c2ccncc2)c2scc(-c3ccnnc3)c2c1=O [Example 7, 5-methyl-3-(pyridazin-4-yl)-7-(pyridin-4-yl)thieno[2,3-d]pyridazin-4(5H)-one] | + (+: 100-220 μl min^−1 mg^−1) | ++ (++: <100 μl min^−1 mg^−1)
